* marks the point of attachment. Acm = CC(=O)NC*
What was measured:
[1] = test system: plasmid nucleic acid pRSVLuc; experiment: Surface plasmon resonance (BIAcore) binding kinetics of peptides/conjugates to immobilized biotinylated plasmid DNA; details: apparent rate constant for dissociation; SPR, PBS, 25° C.
Description: In the examples described below, SPR was detected using the BIAcore system. This machine contained an SPR detector and an integrated microfluidic cartridge which is engineered such that an analyte solution (cationic peptide) is continuously passed over the sensor chip. The sensor chip consists of a glass plate coated with a thin film of gold covered in a layer of carboyxymethyl dextran. The chip used has a dextran layer to which streptavidin is covalently attached. The chip is prepared for use by adding biotinylated nucleic acid which will be bound to the chip via the streptavidin-biotin interaction, and the same chip is used in a series of experiments.
As material binds to the immobilized nucleic acid molecule on the sensor chip, the SPR angle of plane polarized light shining on the surface of the chip is monitored by the detector. Changes in angle are defined as resonance units (RU) and data are collected every second. Background effects are detected and automatically subtracted by the use of a control flow cell in line with the nucleic acid flow cell.
A typical sensorgram has three phases: an association phase, an equilibrium phase and a dissociation phase (see FIG. 1). The rise in signal occurs as more peptide binds to the immobilized plasmid DNA until equilibrium conditions are reached. The height of the peak is directly proportional to the mass of peptide bound. If the flow continues with buffer containing no peptide, peptide begins to dissociate from the complex and the resonance signal is reduced. The sensorgram can be used to compute apparent rate constants for each of the three individual processes.
(1) dC/dt=ka [PF ] [Pmax -PB ]-kd [PB ]
Measurement of Binding Kinetics by Surface Plasmon Resonance
A 6 kilobase (kb) plasmid DNA (pRSVLuc) was biotinylated using photoactivatable biotin (Pierce and Warriner) as per manufacturer's instructions.
A sensor chip with immobilized streptavidin (SA5) was conditioned following manufacturer's instructions, i.e., three one-minute injections of 1 M NaCl: 50 mM NaOH followed by one 1 min injection of 0.5% SDS. Flow rate on the BlAcore sensing device was 20 μl per min, running buffer was phosphate buffered saline (PBS). Flow path was flow cells 1 and 2.
The flow path was switched to flow cell 2 only and the flow rate was reduced to 10 μl per minute. Biotinylated plasmid at a concentration of […] in 0.5M NaCl was injected for 3 mins.
Phosphate buffered saline was used as running buffer at a flow rate of 20 μl per minute. The flow path was over flow cells 1 and 2. Flow cell 1 was used as a reference cell. The experiments were carried out at a temperature of 25° C.
Peptides were injected at various concentrations for three minutes. The injection was followed by a 5 min dissociation phase before the injection port was washed. The sensor chip was regenerated by the injection of 2M NaCl for 1 min. If necessary, this injection was repeated to bring the response back down to baseline before the next peptide sample was injected.
The data was analysed using the methods described in the handbook (BIAevaluation 2.1. Software Handbook, Pharmacia Biosensor AB, Uppsala, Sweden).
Essentially the plots were evaluated as follows: The dissociation constant, kd, was determined first. A curve or family of curves (same NBC at different concentrations) were plotted as response (Y) versus time as Ln (Yo/Y) versus time. In the area where the Ln(Yo/Y) curve was linear, a fit of the default dissociation model [AB]=[A]+[B] was made. The association constant, ka, was then calculated by fitting the related association model on that part of the association curve where a plot of In(abs(dY/dt) versus time was linear. KD were approximated by dividing the calculated kd with the calculated ka.

[2] = without salt at >20 μg/ml

With “NH2-KPKAAKPKKPKKKRKVEKKSPKKAKKPAAC(Acm)-COOH (H-KPKAAKPKKPKKKRKVEKKSPKKAKKPAAC(Acm)-OH; SMILES CC(=O)NCSC[C@H](NC(=O)[C@H](C)NC(=O)[C@H](C)NC(=O)[C@@H]1CCCN1C(=O)[C@H](CCCCN)NC(=O)[C@H](CCCCN)NC(=O)[C@H](C)NC(=O)[C@H](CCCCN)NC(=O)[C@H](CCCCN)NC(=O)[C@@H]1CCCN1C(=O)[C@H](CO)NC(=O)[C@H](CCCCN)NC(=O)[C@H](CCCCN)NC(=O)[C@H](CCC(=O)O)NC(=O)[C@@H](NC(=O)[C@H](CCCCN)NC(=O)[C@H](CCCNC(=N)N)NC(=O)[C@H](CCCCN)NC(=O)[C@H](CCCCN)NC(=O)[C@H](CCCCN)NC(=O)[C@@H]1CCCN1C(=O)[C@H](CCCCN)NC(=O)[C@H](CCCCN)NC(=O)[C@@H]1CCCN1C(=O)[C@H](CCCCN)NC(=O)[C@H](C)NC(=O)[C@H](C)NC(=O)[C@H](CCCCN)NC(=O)[C@@H]1CCCN1C(=O)[C@@H](N)CCCCN)C(C)C)C(=O)O) [NBC2]” the kd [1] was 0.00938 s⁻¹ and the solubility of complexes [2] was “insoluble”.

From US6218112A, “Optimization of gene delivery and gene delivery system” (Cobra Therapeutics Limited, priority 1997, dated 2001)
